Measured values as given in patent publication US10150982B2, “Microbial ecology shift assay” (Second Genome, Inc., priority 2013, dated 2018).

Legend:
[1] = test system: microbiota of human donor fecal samples; assay: MESA microplate experiments (16S rRNA V4 sequencing, PCoA/Unifrac); assay type: cell-based; conditions: 24 hours anaerobic
Experimental: A fecal sample was obtained from each of three human donors, Donor 1, Donor 2, and Donor 3. 1 gram of each fecal sample was added to 10 mL phosphate buffered saline (PBS) to form three separate slurries of 10% (w/v) fecal sample. A total of 36 experiments was setup on a 48-well plate (referred to herein as “microplate experiments”). For each slurry obtained from Donor 1 Donor 2, or Donor 3, 40 μL of the respective slurry was added to each of twelve wells of the plate. For each of these 12 wells, 360 μL of water (control), water comprising fructose, or water comprising fructose oligosaccharide (FOS) were added. After addition of water, three of the twelve wells comprised slurry+water; three of the twelve wells comprised slurry+2% w/v fructose+water; three of the twelve wells comprised slurry+0.5% w/v FOS+water; and three of the twelve wells comprised slurry+2% w/v FOS+water. In Table 1, “Donor 1” represents slurry from Donor 1, “Donor 2” represents slurry from Donor 2, and “Donor 3” represents slurry from Donor 3. The microplate was then incubated for 24 hours in an anaerobic chamber under 80% nitrogen, 10% carbon dioxide, and 10% hydrogen (H2). A total of 8 experiments were prepared each in a vial (referred to herein as “tube experiments”). 200 μL of slurry from Donor 1 was added to each of the 8 vials. In 4 of the vials, 1.8 mL of water comprising FOS was added for a final concentration of 2% w/v FOS. For the other four vials, 1.8 mL of water (control) was added. Two of the vials comprising FOS and the two vials comprising water are incubated for 24 hours in an anaerobic chamber (comprising 80% nitrogen, 10% carbon dioxide, and 10% hydrogen (H2)) at 37° C. The other four vials are incubated for 16 hours. DNA was extracted from each sample (well or tube) and quantified using a PicoGreen method. DNA is also extracted from an aliquot of each slurry obtained from Donor 1, Donor 2, and Donor 3. DNA comprising the variable region (V4) region of the 16S rRNA gene was amplified and sequenced using the MiSeq platform from Ilumina. Principle component analyses (PCoA) were performed to identify Unifrac distances (degree of similarity/dissimilarity) of the different treatment groups. Relative taxa representation for the various treatment groups was determined at the phylum, class, order, family, genus and species levels using operational taxonomic units (OTUs) by comparing results to the GreenGenes database.

[2] = test system: microbiota of human donor fecal samples; assay: MESA tube experiments (16S rRNA V4 sequencing, PCoA/Unifrac); assay type: cell-based; conditions: 2% FOS
Experimental: A fecal sample was obtained from each of three human donors, Donor 1, Donor 2, and Donor 3. 1 gram of each fecal sample was added to 10 mL phosphate buffered saline (PBS) to form three separate slurries of 10% (w/v) fecal sample. A total of 36 experiments was setup on a 48-well plate (referred to herein as “microplate experiments”). For each slurry obtained from Donor 1 Donor 2, or Donor 3, 40 μL of the respective slurry was added to each of twelve wells of the plate. For each of these 12 wells, 360 μL of water (control), water comprising fructose, or water comprising fructose oligosaccharide (FOS) were added. After addition of water, three of the twelve wells comprised slurry+water; three of the twelve wells comprised slurry+2% w/v fructose+water; three of the twelve wells comprised slurry+0.5% w/v FOS+water; and three of the twelve wells comprised slurry+2% w/v FOS+water. In Table 1, “Donor 1” represents slurry from Donor 1, “Donor 2” represents slurry from Donor 2, and “Donor 3” represents slurry from Donor 3. […] DNA was extracted from each sample (well or tube) and quantified using a PicoGreen method. […] Relative taxa representation for the various treatment groups was determined at the phylum, class, order, family, genus and species levels using operational taxonomic units (OTUs) by comparing results to the GreenGenes database.

[3] = Donor 1, 2% w/v agent, n=3, FIG. 2
[4] = Donor 2, 2% w/v agent, n=3, FIG. 3
[5] = Donor 3, 2% w/v agent, n=3, FIG. 4

With fructose oligosaccharide [FOS] the “shift in microbiota profile (PCoA, Unifrac distances)” value (shortened to “shift in microbiota profile”) ([1]; Donor 1, 0.5% w/v agent, n=3, FIG. 2) was “shift microbiota differently from controls”, the “shift in microbiota profile” value [1, 3] was “shift microbiota differently from controls” and the “shift in microbiota profile” value ([1]; Donor 2, 0.5% w/v agent, n=3, FIG. 3) was “shift microbiota differently from controls”. The “shift in microbiota profile” value [1, 4] was “shift microbiota differently from controls”, the “shift in microbiota profile” value ([1]; Donor 3, 0.5% w/v agent, n=3, FIG. 4) was “shift microbiota differently from controls” and the “shift in microbiota profile” value [1, 5] was “shift microbiota differently from controls”. The “shifts in microbial communities between the two assay formats” value ([2]; 24 hour incubation, tube (n=2) vs microplate (n=3), FIG. 6) was “similar” and the “shifts in microbial communities between the two incubation times” value ([2]; Donor 1, 16 hour vs 24 hour incubation, tube, n=2, FIG. 5) was “similar”.

With O=C(CO)[C@@H](O)[C@H](O)[C@H](O)CO [fructose] the “shift in microbiota profile” value [1, 3] was “shift microbiota differently from controls”, the “shift in microbiota profile” value [1, 4] was “shift microbiota differently from controls” and the “shift in microbiota profile” value [1, 5] was “shift microbiota differently from controls”.
